Results taken from patent publication US20200261516A1, “Composition for Increasing Muscle Mass” (MORINAGA MILK INDUSTRY CO., LTD., priority 2017, published 2020).

Test system: C57BL/6 mice
Assay: Mouse test: muscle wet weight (body weight ratio) and gastrocnemius histology after 4-week oral administration
Assay type: in vivo
Conditions: once a day for 4 weeks, n=7/group
Experimental: C57BL/6 mice (Charles River, Japan: healthy mice) were used as test animals to evaluate the effect of 4-week continuous ingestion of Bifidobacterium breve FERM BP-11175 on muscle mass increase.
After receiving the test animals at 9 weeks old, F-2 feed (manufactured by Funabashi Pharm) and tap water were freely ingested. After one week of acclimatization, the test animals were divided into 3 groups (n=7/group): a control group (administered 10 mL/kg body weight of tap water); a Bifidobacterium administration group (administered 10 mL/kg body weight of culture supernatant of Bifidobacterium breve FERM BP-11175 prepared in (1) of test example 1); and a leucine administration group (administered 1.5 g/kg body weight of leucine), and oral administration was continued for each mouse using an oral probe once a day for 4 weeks. After the final administration, the test animals were fasted for 3 hours, followed by treatment under sevoflurane anesthesia, and plantaris and gastrocnemius was removed to measure the wet weight (body weight ratio) of each tissue. For gastrocnemius, the thin-sectioned tissue was stained with HE, and then the tissue was observed under a microscope.

Structure (SMILES): CC(C)C[C@H](N)C(=O)O [Leucine, leucine]
- Gastrocnemius tissue weight (body weight ratio) [Mean value ± SE]: 5.417 ± 0.125 mg/g body weight
- Plantaris tissue weight (body weight ratio) [Mean value ± SE]: 0.706 ± 0.027 mg/g body weight
